Test results from patent US7928098B2, “Therapeutic and/or preventive agents for a sleep disorder” (Kyowa Hakko Kirin Co., Ltd., priority 2005, dated 2011).

| melting point | Structure (SMILES) |
| --- | --- |
| 144 to 145 °C | O=C(Nc1nc(-c2ccco2)c(C(=O)c2ccccn2)s1)OC1CCOCC1 [Compound 161, 4-Tetrahydropyranyl N-[4-(2-furyl)-5-(pyridin-2-ylcarbonyl)thiazol-2-yl]carbamate] |
| 195 to 198 °C | Cc1cc(C(=O)Nc2nc(-c3ccco3)c(C(=O)c3ccccn3)s2)c(C)o1 [Compound 148, N-[4-(2-Furyl)-5-(pyridin-2-ylcarbonyl)thiazol-2-yl]-2,5-dimethylfuran-3-carboxamide] |
| 103 to 105 °C | COCCN(C)CC(=O)Nc1nc(-c2ccco2)c(C(=O)C2CCOCC2)s1 [Compound 439, N-[4-(2-Furyl)-5-(tetrahydropyran-4-ylcarbonyl)thiazol-2-yl]-2-[N-(2-methoxyethyl)-N-methylamino]acetamide] |
| 195 to 205 °C | CN1CCN(c2ccc(C(=O)c3sc(NC(=O)c4ccncc4)nc3-c3ccco3)cn2)CC1 [Compound 232, N-{4-(2-Furyl)-5-[2-(4-methylpiperazin-1-yl)pyridin-5-ylcarbonyl]thiazol-2-yl}pyridine-4-carboxamide] |
| 294 to 295 °C | Cn1cc(-c2sc(NC(=O)c3ccncc3)nc2-c2ccco2)ccc1=O [Compound 38, N-[4-(2-Furyl)-5-(1-methyl-2-oxo-1,2-dihydropyridin-5-yl)thiazol-2-yl]pyridine-4-carboxamide] |
| 115 to 117 °C | O=C(CN1CCCC1)Nc1nc(-c2ccco2)c(C(=O)C2CCOCC2)s1 [Compound 441, N-[4-(2-Furyl)-5-(tetrahydropyran-4-ylcarbonyl)thiazol-2-yl]-2-(1-pyrrolidinyl)acetamide] |
| 210 to 215 °C | Cc1ccc(C(=O)Nc2nc(-c3ccco3)c(C(=O)c3ccccn3)s2)cn1 [Compound 130, N-[4-(2-Furyl)-5-(pyridin-2-ylcarbonyl)thiazol-2-yl]-2-methylpyridine-5-carboxamide] |
| 205 to 208 °C | COc1ccccc1C(=O)Nc1nc(-c2ccco2)c(C(=O)c2ccccn2)s1 [Compound 108, N-[4-(2-Furyl)-5-(pyridin-2-ylcarbonyl)thiazol-2-yl]-2-methoxybenzamide] |
| 170 to 171 °C | O=C(CN1CCOCC1)Nc1nc(-c2ccco2)c(C(=O)c2ccccn2)s1 [Compound 172, N-[4-(2-Furyl)-5-(pyridin-2-ylcarbonyl)thiazol-2-yl]morpholinoacetamide] |
| 200 to 205 °C | O=C(Nc1nc(-c2ccco2)c(C(=O)C2CCC2)s1)C1CC1 [Compound 333, N-[5-(Cyclobutylcarbonyl)-4-(2-furyl)thiazol-2-yl]cyclopropanecarboxamide] |
| 227 to 229 °C | O=C(Nc1nc(-c2ccco2)c(C(=O)C2CCOCC2)s1)c1ccsc1 [Compound 423, N-[4-(2-Furyl)-5-(tetrahydropyran-4-ylcarbonyl)thiazol-2-yl]thiophene-3-carboxamide] |
| 254 to 258 °C | O=C(Nc1nc(-c2ccco2)c(C(=O)c2ccccn2)s1)c1cc(Cl)nc(Cl)c1 [Compound 124, 2,6-Dichloro-N-[4-(2-furyl)-5-(pyridin-2-ylcarbonyl)thiazol-2-yl]pyridine-4-carboxamide] |
| 264 to 268 °C | O=C(Nc1nc(-c2ccco2)c(C(=O)c2ccc(N3CCC(O)CC3)nc2)s1)c1ccncc1 [Compound 233, N-{4-(2-Furyl)-5-[2-(4-hydroxypiperidino)pyridin-5-ylcarbonyl]thiazol-2-yl}pyridine-4-carboxamide] |
| 165 to 171 °C | O=C(Nc1nc(-c2ccco2)c(C(=O)c2ccccn2)s1)c1ccccc1 [Compound 107, N-[4-(2-Furyl)-5-(pyridin-2-ylcarbonyl)thiazol-2-yl]-benzamide] |
| 123 to 124 °C | CC(C)(C)NC(=O)Nc1nc(-c2ccco2)c(C(=O)c2ccccn2)s1 [Compound 167, N-tert-Butyl-N′-[4-(2-furyl)-5-(pyridin-2-ylcarbonyl)thiazol-2-yl]urea] |
| 257 to 260 °C | N#Cc1cccc(C(=O)Nc2nc(-c3ccco3)c(C(=O)C3CCOCC3)s2)c1 [Compound 378, 3-Cyano-N-[4-(2-furyl)-5-(tetrahydropyran-4-ylcarbonyl)-thiazol-2-yl]benzamide] |
| 168 to 170 °C | O=C(CNC12CC3CC(CC(C3)C1)C2)Nc1nc(-c2ccco2)c(C(=O)C2CCOCC2)s1 [Compound 482, N-[4-(2-Furyl)-5-(tetrahydropyran-4-ylcarbonyl)thiazol-2-yl]-2-(adamantan-1-ylamino)acetamide] |
| 153 to 155 °C | O=C(CN1CCSC1)Nc1nc(-c2ccco2)c(C(=O)c2ccccn2)s1 [Compound 189, N-[4-(2-Furyl)-5-(pyridin-2-ylcarbonyl)thiazol-2-yl]-2-(1,3-thiazolidin-3-yl)acetamide] |
| 148 to 149 °C | COCC(=O)Nc1nc(-c2ccco2)c(C(=O)C2CCOCC2)s1 [Compound 435, N-[4-(2-Furyl)-5-(tetrahydropyran-4-ylcarbonyl)thiazol-2-yl]-2-methoxyacetamide] |
| 217 to 222 °C | O=C(Nc1nc(-c2ccco2)c(C(=O)C2CCOCC2)s1)c1ccc(C(F)(F)F)nc1 [Compound 410, N-[4-(2-Furyl)-5-(tetrahydropyran-4-ylcarbonyl)thiazol-2-yl]-2-(trifluoromethyl)pyridine-5-carboxamide] |
| 185 to 186 °C | O=C(Nc1nc(-c2ccco2)c(C(=O)C2CCOCC2)s1)c1ccccn1 [Compound 412, N-[4-(2-Furyl)-5-(tetrahydropyran-4-ylcarbonyl)thiazol-2-yl]pyridine-2-carboxamide] |
| 225 to 230 °C (dec.) | O=C(Nc1nc(-c2ccco2)c(C(=O)C2CC2)s1)c1ccncc1 [Compound 323, N-[5-(Cyclopropylcarbonyl)-4-(2-furyl)thiazol-2-yl]pyridine-4-carboxamide] |
| 108 to 115 °C | Cc1cc(C(=O)Nc2nc(-c3ccco3)c(C(=O)C3CCC(=O)CC3)s2)ccn1 [Compound 354, N-[4-(2-Furyl)-5-(4-oxocyclohexylcarbonyl)thiazol-2-yl]-2-methylpyridine-4-carboxamide] |
| 234 to 237 °C | N#Cc1cccc(C(=O)Nc2nc(-c3ccco3)c(C(=O)c3ccccn3)s2)c1 [Compound 113, 3-Cyano-N-[4-(2-furyl)-5-(pyridin-2-ylcarbonyl)thiazol-2-yl]benzamide] |
| 270 to 274 °C | O=C(Nc1nc(-c2ccco2)c(C(=O)c2ccccn2)s1)c1ccnnc1 [Compound 135, N-[4-(2-Furyl)-5-(pyridin-2-ylcarbonyl)thiazol-2-yl]pyridazine-4-carboxamide] |
| 229 to 231 °C | Cc1ccc(C(=O)c2sc(NC(=O)c3ccoc3)nc2-c2ccco2)cn1 [Compound 223, N-[4-(2-Furyl)-5-(2-methylpyridin-5-ylcarbonyl)thiazol-2-yl]furan-3-carboxamide] |
| 177 to 179 °C | O=C(CN1CCC(N2CCCCC2)CC1)Nc1nc(-c2ccco2)c(C(=O)C2CCOCC2)s1 [Compound 457, N-[4-(2-Furyl)-5-(tetrahydropyran-4-ylcarbonyl)thiazol-2-yl]-2-(4-piperidinopiperidino)acetamide] |
| 288 to 290 °C | N#Cc1ccc(C(=O)Nc2nc(-c3ccco3)c(C(=O)c3cccnc3)s2)cc1 [Compound 213, 4-Cyano-N-[4-(2-furyl)-5-(pyridin-3-ylcarbonyl)thiazol-2-yl]benzamide] |
